Results reported in patent US12371454B2, “Cyclic peptide compound having Kras inhibitory action” (priority 2019, dated 2025).
Starred links: 1 amine or outer side, 2 acyl side, 3 side chain; linkers in the order of their positions; H or OH if unused. Positions of bridges follow the written chain, without caps; N, C: chain ends. Non-standard residues stand in square brackets, D forms with d. Residues, ends and D or L forms follow the SMILES beside them. *: point of attachment. hPhe(3-Cl-4-CF3) = N[C@@H](CCc1ccc(C(F)(F)F)c(Cl)c1)C(=O)O; 3Oxa8azabicyclo(3.2.1)octane = C1CC2COCC1N2*; NMeAbu(4,4,4-F3) = CN[C@@H](CC(F)(F)F)C(=O)O; NMePhe(4-Me) = CN[C@@H](Cc1ccc(C)cc1)C(=O)O; NMeNle(6-CHF2) = CN[C@@H](CCCCC(F)F)C(=O)O; NMedβ3hAla = C[C@H](CC(=O)[*:2])N(C)[*:1]; Morpholine(3S-CO) = O=C(O)[C@@H]1COCCN1; NMeCha = CN[C@@H](CC1CCCCC1)C(=O)O; X2 = C=CC[C@](C)(N[*:1])C(=O)[*:2]; Ala(cPr) = N[C@@H](CC1CC1)C(=O)O; NMeChg = CN[C@H](C(=O)O)C1CCCCC1; NMeD = CN[C@@H](CC(=O)O)C(=O)O; NMeL = CN[C@@H](CC(C)C)C(=O)O; NMehSer = CN[C@@H](CCO)C(=O)O; NMeV = CN[C@H](C(=O)O)C(C)C; NMeS = CN[C@@H](CO)C(=O)O; Piperidide = C1CCN(*)CC1; Pyrrolidide = C1CCN(*)C1; Ac5c = NC1(C(=O)O)CCCC1; Cyclobutyl = C1CC(*)C1; Sar = CNCC(=O)O

Key:
[1] = target: T1, Kras and SOS1 (biotin-tagged human Kras loaded with GDP, His-tagged human SOS1) (Homo sapiens, UniProt P01116, G12D); test: Protein-protein interaction inhibition between Kras and SOS1 (KrasGl2D-SOS PPI) using AlphaScreen; format: binding; settings: AlphaScreen; biotin-tagged human Kras loaded with GDP, His-tagged human SOS1; read-out: KRAS G12D-SOS PPI IC50
T1 construct: made in house; host or cells: E. coli (stated for Kras only)
T1 sequence (P01116 1-188 isoform P01116-2 G12D): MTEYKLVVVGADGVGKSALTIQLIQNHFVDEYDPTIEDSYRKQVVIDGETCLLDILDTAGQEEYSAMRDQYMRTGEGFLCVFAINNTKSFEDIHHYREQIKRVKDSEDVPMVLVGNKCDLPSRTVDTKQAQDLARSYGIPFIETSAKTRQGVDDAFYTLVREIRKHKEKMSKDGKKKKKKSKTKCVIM
Summary of the method: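 Kras was produced in E. coli, purified, then loaded with GDP. It was paired via streptavidin acceptor beads with His-SOS1 held on nickel donor beads, and proximity signal at 520-620 nm was read after 680 nm illumination.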

[2] = system: Human pancreatic cancer cell line AsPC-1; test: Measurement of AsPC-1 cell growth inhibition (AsPC-1 CGI); format: cell-based; settings: 96 h
Summary of the method: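 AsPC-1 cells in 15% FBS RPMI-1640 were exposed to test compound for 96 hours at 37° C, with CellTiter-Glo as endpoint.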

SMILES | IC50 [1] | IC50 [2]
CC[C@H](C)[C@@H]1NC(=O)[C@H](CC(C)C)N(C)C(=O)C[C@@H](C)N(C)C(=O)[C@H](C2CCCCC2)N(C)C(=O)C2(CCCC2)NC(=O)[C@@H]2CCCN2C(=O)[C@H](CCc2ccc(C(F)(F)F)c(Cl)c2)NC(=O)CN(C)C(=O)[C@H](CC2CCCCC2)N(C)C(=O)CN(C)C(=O)CN(C)C1=O [Compound 629] (cyclo([Ac5c][NMeChg][NMedβ3hAla][NMeL]I[Sar][Sar][NMeCha][Sar][hPhe(3-Cl-4-CF3)]P)) | 10 nM | 100 to 500 nM
CC[C@H](C)[C@@H]1NC(=O)[C@H](CC(C)C)N(C)C(=O)C[C@@H](C(=O)N2CCCCC2)N(C)C(=O)[C@H](C2CCCCC2)N(C)C(=O)C2(CCCC2)NC(=O)[C@@H]2CCCN2C(=O)[C@H](CCc2ccc(C(F)(F)F)c(Cl)c2)NC(=O)CN(C)C(=O)[C@H](CCCCC(F)F)N(C)C(=O)CN(C)C(=O)CN(C)C1=O [Compound 631] ([NMeL]I[Sar][Sar][NMeNle(6-CHF2)][Sar][hPhe(3-Cl-4-CF3)]P[Ac5c][NMeChg][NMeD]-Piperidide; lactam N-11) | 1 nM | 100 to 500 nM
C=CC[C@]1(C)NC(=O)[C@@H]2CCCN2C(=O)[C@H](CCc2ccc(C(F)(F)F)c(Cl)c2)NC(=O)CN(C)C(=O)[C@H](CC2CCCCC2)N(C)C(=O)CN(C)C(=O)CN(C)C(=O)[C@H]([C@@H](C)CC)NC(=O)[C@H](CC(C)C)N(C)C(=O)C[C@@H](C)N(C)C(=O)[C@H](C(C)C)N(C)C1=O [Compound 644] (cyclo(I[Sar][Sar][NMeCha][Sar][hPhe(3-Cl-4-CF3)]P[X2][NMeV][NMedβ3hAla][NMeL])) | 17 nM | 100 to 500 nM
CC[C@H](C)[C@@H]1NC(=O)[C@H](CC(F)(F)F)N(C)C(=O)C[C@@H](C(=O)N2CCCC2)N(C)C(=O)[C@H](C2CCCCC2)N(C)C(=O)C2(CCCC2)NC(=O)[C@@H]2CCCN2C(=O)[C@H](CCc2ccc(C(F)(F)F)c(Cl)c2)NC(=O)CN(C)C(=O)[C@H](CC2CCCCC2)N(C)C(=O)CN(C)C(=O)CN(C)C1=O [Compound 647] ([NMeAbu(4,4,4-F3)]I[Sar][Sar][NMeCha][Sar][hPhe(3-Cl-4-CF3)]P[Ac5c][NMeChg][NMeD]-Pyrrolidide; lactam N-11) | 0.58 nM | 20 to 50 nM
CC[C@H](C)[C@@H]1NC(=O)[C@H](CCOC)N(C)C(=O)C[C@@H](C(=O)N2CCCCC2)N(C)C(=O)[C@H](C2CCCCC2)N(C)C(=O)C2(CCCC2)NC(=O)[C@@H]2CCCN2C(=O)[C@H](CCc2ccc(C(F)(F)F)c(Cl)c2)NC(=O)CN(C)C(=O)[C@H](CC2CCCCC2)N(C)C(=O)CN(C)C(=O)CN(C)C1=O [Compound 650] ([NMehSer](Me)I[Sar][Sar][NMeCha][Sar][hPhe(3-Cl-4-CF3)]P[Ac5c][NMeChg][NMeD]-Piperidide; lactam N-11) | 0.6 nM | 50 to 100 nM
CC[C@H](C)[C@@H]1NC(=O)[C@H](CC(C)C)N(C)C(=O)C[C@@H](C(=O)N2CCCCC2)N(C)C(=O)[C@H](C2CCCCC2)N(C)C(=O)C2(CCCC2)NC(=O)[C@@H]2COCCN2C(=O)[C@H](CCc2ccc(C(F)(F)F)c(Cl)c2)NC(=O)CN(C)C(=O)[C@H](CC2CCCCC2)N(C)C(=O)CN(C)C(=O)CN(C)C1=O [Compound 662] ([NMeL]I[Sar][Sar][NMeCha][Sar][hPhe(3-Cl-4-CF3)][Morpholine(3S-CO)][Ac5c][NMeChg][NMeD]-Piperidide; lactam N-11) | 3.2 nM | 50 to 100 nM
CC[C@H](C)[C@@H]1NC(=O)[C@H](CC(F)(F)F)N(C)C(=O)C[C@@H](C(=O)N2C3CCC2COC3)N(C)C(=O)[C@H](C2CCCCC2)N(C)C(=O)C2(CCCC2)NC(=O)[C@@H]2CCCN2C(=O)[C@H](CCc2ccc(C(F)(F)F)c(Cl)c2)NC(=O)CN(C)C(=O)[C@H](Cc2ccc(C)cc2)N(C)C(=O)CN(C)C(=O)CN(C)C1=O [Compound 683] ([NMeAbu(4,4,4-F3)]I[Sar][Sar][NMePhe(4-Me)][Sar][hPhe(3-Cl-4-CF3)]P[Ac5c][NMeChg][NMeD]-{3Oxa8azabicyclo(3.2.1)octane}; lactam N-11) | 0.61 nM | 50 to 100 nM
CC(C)C[C@H]1C(=O)N[C@@H](CC2CC2)C(=O)N(C)CC(=O)N(C)CC(=O)N(C)[C@@H](CC2CCCCC2)C(=O)N(C)CC(=O)N[C@@H](CCc2ccc(C(F)(F)F)c(Cl)c2)C(=O)N2CCC[C@H]2C(=O)NC2(CCCC2)C(=O)N(C)[C@@H](C2CCCCC2)C(=O)N(C)[C@H](C(=O)N2CCCCC2)CC(=O)N1C [Compound 689] ([NMeL][Ala(cPr)][Sar][Sar][NMeCha][Sar][hPhe(3-Cl-4-CF3)]P[Ac5c][NMeChg][NMeD]-Piperidide; lactam N-11) | 2.1 nM | 100 to 500 nM
CC[C@H](C)[C@@H]1NC(=O)[C@H](COC2CCC2)N(C)C(=O)C[C@@H](C(=O)N2CCCCC2)N(C)C(=O)[C@H](C2CCCCC2)N(C)C(=O)C2(CCCC2)NC(=O)[C@@H]2CCCN2C(=O)[C@H](CCc2ccc(C(F)(F)F)c(Cl)c2)NC(=O)CN(C)C(=O)[C@H](CC2CCCCC2)N(C)C(=O)CN(C)C(=O)CN(C)C1=O [Compound 699] ([NMeS](Cyclobutyl)I[Sar][Sar][NMeCha][Sar][hPhe(3-Cl-4-CF3)]P[Ac5c][NMeChg][NMeD]-Piperidide; lactam N-11) | 0.83 nM | 50 to 100 nM
